Assay results as given in patent US7947696B2, “2-amino-4-phenylquinazoline derivatives and the use thereof as HSP90 modulators” (Merck Patent GmbH, priority 2005, dated 2011).
Where a name gives a salt, the structure may show the parent alone.

The compounds below were run against T1, Recombinant human HSP90α (Homo sapiens, UniProt P07900) (assay: radioligand filter binding test, competition with [3H]17AAG for HSP90). Settings: [3H]17AAG 0.08 μM, HSP90 1.5 μg/assay, 22° C., 30 min, pH 7.0.
T1 construct: host or cells: E. coli
Description: The binding of geldanamycin or 17-allylamino-17-demethoxygeldanamycin (17AAG) to HSP90 and competitive inhibition thereof can be utilised in order to determine the inhibitory activity of the compounds according to the invention (Carreras et al. 2003, Chiosis et al. 2002).
In the specific case, a radioligand filter binding test is used. The radioligand used here is tritium-labelled 17-allylaminogeldanamycin, [3H]17AAG. This filter binding test allows a targeted search for inhibitors which interfere with the ATP binding site.
Recombinant human HSP90α(E. coli expressed, 95% purity); [3H]17AAG (17-allylaminogeldanamycin, [allylamino-2,3-^3H. Specific activity: 1.11×10^12 Bq/mmol (Moravek, MT-1717); HEPES filter buffer (50 mM HEPES, pH 7.0, 5 mM MgCl2, BSA 0.01%) Multiscreen FB (1 μm) filter plate (Millipore, MAFBNOB 50).
The 96-well microtitre filter plates are firstly irrigated and coated with 0.1% of polyethylenimine.
The test is carried out under the following conditions: • Reaction temperature 22° C. • Reaction time: 30 min., shaking at 800 rpm • Test volume: 50 μl • Final concentrations: • 50 mM HEPES HCl, pH 7.0, 5 mM MgCl2, 0.01% (w/v) BSA • HSP90:1.5 μg/assay • [3H]17AAG: 0.08 μM.
At the end of the reaction, the supernatant in the filter plate is removed by suction with the aid of a vacuum manifold (Multiscreen Separation System, Millipore), and the filter is washed twice.
The filter plates are then measured in a beta counter (Microbeta, Wallac) with scintillator (Microscint 20, Packard).
“% of control” is determined from the “counts per minutes” values and the IC-50 value of a compound is calculated therefrom.

Compound	IC50
COc1ccc(-c2nc(N)nc3ccc(Cl)cc23)cc1OCc1ccc(-c2nnn[nH]2)cc1 [Compound A138, 2-amino-6-chloro-4-{3-[4-(1H-tetrazol-5-yl)benzyloxy]-4-methoxyphenyl}quinazoline]	0.54 µM
COC(=O)c1cccc(COc2cc(-c3nc(N)nc4ccc(Cl)cc34)ccc2OC)c1 [Compound A108, 2-amino-6-chloro-4-[3-(3-methoxycarbonylbenzyloxy)-4-methoxyphenyl]quinazoline]	0.95 µM
COc1ccc(-c2nc(N)nc3ccc(Cl)cc23)cc1OC [Compound A134, 2-amino-6-chloro-4-(3,4-dimethoxyphenyl)quinazoline]	0.55 µM
COc1ccc(-c2nc(N)nc3ccc(Cl)cc23)cc1OCCCC(=O)O [Compound A111, 2-amino-6-chloro-4-[3-(3-carboxypropoxy)-4-methoxyphenyl]quinazoline sodium salt]	0.58 µM
COC(=O)c1ccc(COc2cc(-c3nc(N)nc4ccc(Cl)cc34)ccc2OC)cc1 [Compound A109, 2-amino-6-chloro-4-[3-(4-methoxycarbonylbenzyloxy)-4-methoxyphenyl]quinazoline]	0.8 µM

These reach a lower IC50. Values come first.

IC50	Compound
0.47 µM	COc1ccc(-c2nc(N)nc3ccc(Cl)cc23)cc1OCc1cccc(C(=O)O)c1 [Compound A112, 2-amino-6-chloro-4-[3-(3-carboxybenzyloxy)-4-methoxyphenyl]quinazoline sodium salt]
0.37 µM	COc1ccc(-c2nc(N)nc3ccc(Cl)cc23)cc1OCc1ccc(C(=O)O)cc1 [Compound A113, 2-amino-6-chloro-4-[3-(4-carboxybenzyloxy)-4-methoxyphenyl]quinazoline sodium salt]
